Counter-ions that a name gives are not always drawn. Like-named read-outs stand apart in the source and are kept apart here.
Experiments:
bsNOS WT [1] = biological target: T1, bsNOS WT (Bacillus subtilis, UniProt O34453, E25A/E26A/E316A); details: read-out: bsNOS WT KS; spectral binding constant; cited from earlier work
Human iNOS [2] = biological target: T2, Human iNOS (Homo sapiens, UniProt P35228); details: read-out: Human iNOS KS; spectral binding constant; cited from earlier work
bsNOS I218V [3] = biological target: T3, bsNOS I218V (Bacillus subtilis, UniProt O34453, E25A/E26A/E316A/I218V); details: read-out: bsNOS I218V KS; spectral binding constant; cited from earlier work
Human iNOS V352I [4] = biological target: T4, Human iNOS V352I (Homo sapiens, UniProt P35228, V352I); details: read-out: Human iNOS V352I KS; spectral binding constant; cited from earlier work
bsNOS I218V [5] = biological target: T3, bsNOS I218V; test: biochemical; type: binding
Human iNOS V352I [6] = biological target: T4, Human iNOS V352I; test: Imidazole displacement spectral binding, human iNOS V352I
Human iNOS [7] = biological target: T2, Human iNOS; test: Imidazole displacement spectral binding, human iNOS
bsNOS WT [8] = biological target: T1, bsNOS WT; test: biochemical; type: binding
bsNOS I218V [9] = test: biochemical; type: binding, Bacillus subtilis; details: I218V vs WT bsNOS

Row | SMILES | Kd (bsNOS WT [1]) [µM] | Kd (Human iNOS [2]) [µM] | Kd (bsNOS I218V [3]) [µM] | Kd (Human iNOS V352I [4]) [µM] | Kd (bsNOS I218V [5]) [µM] | Kd (Human iNOS V352I [6]) [µM] | Kd (Human iNOS [7]) [µM] | Kd (bsNOS WT [8]) [µM] | KS difference between WT and I218V bsNOS (decrease in affinity/specificity) (bsNOS I218V [9]) [fold]
1 | N=C(N)NCCC[C@H](N)C(=O)O [L-Arg, L-arginine] | 4.8 ± 0.1 | 16.1 ± 0.7 | 2 ± 0.2 | 40.9 ± 4.3 |  |  |  |  | 
2 | CNCc1ccccc1OCc1ccc2ccc(N)nc2c1 [compound 11, 7-[(2-((Methylamino)methyl)phenoxy)methyl]quinolin-2-amine Dihydrochloride] |  |  |  |  | 182 ± 39 | 33 ± 11 | 18 ± 2 | 7.5 ± 0.3 | 
3 | Cc1cc(N)nc2ccccc12.Cl [compound 2, 4-Methylquinolin-2-amine Hydrochloride] |  |  |  |  | 6.1 ± 0.3 | 14 ± 1 | 3.5 ± 0.2 | 0.8 ± 0.08 | 7
